Assay results reported in patent publication US12319655B2, “RAF kinase inhibitors and methods of use thereof” (Deciphera Pharmaceuticals, LLC, priority 2021, dated 2025).
Read-outs that look alike come from different tables or passages of the source.

What was measured:
[1] = biological target: A-Raf kinase (SEQ. ID No: 1) (Homo sapiens (Human), UniProt P10398, Y301D/Y302D); assay: Biochemical Assay for A-Raf (1); conditions: Table J
Summary of the method: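 A-Raf Y301D/Y302D at 5.55 nM phosphorylates 30.1 nM MEK with 1 mM ATP in pH 7.5 Tris buffer, 1% DMSO. Activity was read continuously as NADH oxidation at 340 nm in a pyruvate kinase/lactate dehydrogenase coupled system for 6 h at 30 °C. Rates from 4–5 h were converted to percent inhibition, and IC50 came from a four-parameter fit.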

[2] = biological target: B-Raf kinase (SEQ. ID NO: 2) (Homo sapiens (Human), UniProt P15056); assay: Biochemical Assay for B-Raf (1); conditions: Table J
Summary of the method: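 Continuous PK/LDH-coupled NADH oxidation assay, A340 read for 6 h at 30° C., with 0.13 nM B-Raf, 30.1 nM MEK substrate and 1 mM ATP in Tris pH 7.5, MgCl2, DTT, detergents, 1% DMSO. Rate taken from 4–5 h window; percent inhibition vs no-compound and known-inhibitor controls; four-parameter fit gives IC50.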

Miapaca-2 cells = assay: MiaPaca-2 Cell Proliferation Assay (1); assay type: cell-based; conditions: Homo sapiens, MIA PaCa-2, single agent, read-out: MiaPaca2 (1) IC50
Summary of the method: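 Resazurin was added after compound exposure and incubated 5-6 h, then fluorescence read at 540 nm excitation and 600 nm emission to give IC50.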

H2405 cells = assay: H2405 Cell Proliferation Assay (1); assay type: cell-based; conditions: Homo sapiens, NCI-H2405
Summary of the method: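 Viability was read by resazurin reduction (ex 540 nm, em 600 nm; 5-6 h with 40 μL of 440 μM stock) after 67-72 h compound exposure at 37 °C.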

[3] = assay version (1), read-out: ARAF (1) IC50
[4] = assay version (1), read-out: BRAF (1) IC50
[5] = biochemical assay (1), read-out: ARAF (1)
[6] = biochemical assay (1), read-out: BRAF (1)

Sequence of B-Raf kinase (SEQ. ID NO: 2) (P15056 416-766): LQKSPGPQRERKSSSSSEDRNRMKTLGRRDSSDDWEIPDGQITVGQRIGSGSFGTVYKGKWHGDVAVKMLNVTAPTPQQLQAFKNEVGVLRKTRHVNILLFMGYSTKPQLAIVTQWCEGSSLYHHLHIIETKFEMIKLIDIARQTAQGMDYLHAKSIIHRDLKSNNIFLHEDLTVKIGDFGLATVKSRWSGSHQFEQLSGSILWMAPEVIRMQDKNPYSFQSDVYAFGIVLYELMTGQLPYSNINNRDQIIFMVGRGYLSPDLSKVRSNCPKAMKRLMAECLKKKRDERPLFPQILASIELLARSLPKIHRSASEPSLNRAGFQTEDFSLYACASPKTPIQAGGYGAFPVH
Sequence of A-Raf kinase (SEQ. ID No: 1) (P10398 other isoform, or with tags, fused parts or gaps Y301D (already in the parent)/Y302D (already in the parent)): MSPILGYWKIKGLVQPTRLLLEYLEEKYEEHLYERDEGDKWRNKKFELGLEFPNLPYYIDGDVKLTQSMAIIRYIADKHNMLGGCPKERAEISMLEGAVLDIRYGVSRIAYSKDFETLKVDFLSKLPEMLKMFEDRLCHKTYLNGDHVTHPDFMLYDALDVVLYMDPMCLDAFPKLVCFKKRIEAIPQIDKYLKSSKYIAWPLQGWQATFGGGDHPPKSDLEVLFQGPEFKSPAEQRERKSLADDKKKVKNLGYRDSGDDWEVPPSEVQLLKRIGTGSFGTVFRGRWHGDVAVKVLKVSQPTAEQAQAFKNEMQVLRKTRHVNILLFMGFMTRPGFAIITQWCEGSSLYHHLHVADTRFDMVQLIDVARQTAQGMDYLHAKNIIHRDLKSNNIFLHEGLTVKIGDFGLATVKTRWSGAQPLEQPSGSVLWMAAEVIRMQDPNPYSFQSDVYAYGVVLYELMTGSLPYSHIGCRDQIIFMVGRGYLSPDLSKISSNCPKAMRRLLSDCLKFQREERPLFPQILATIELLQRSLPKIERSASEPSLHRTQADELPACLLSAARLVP

SMILES | IC50 [1, 3] [nM] | IC50 [2, 4] [nM] | IC50 (Miapaca-2 cells) [nM] | IC50 (H2405 cells) [nM] | IC50 [1, 5] [nM] | IC50 [2, 6] [nM]
CC(=O)Nc1cc(-c2cc(-c3cc(NC(=O)c4cccc(C)c4)ccc3C)ccn2)ccn1 [Example 32] | 500 to 1000 | ≤ 100 | 1000 to 10000 | – | – | –
Cc1cc(F)c(NC(=O)c2ccnc(C(F)(F)F)c2)cc1-c1ccnc(-c2ccnc(NC=O)c2)c1 [Example 35] | 1000 to 10000 | ≤ 100 | 1000 to 10000 | – | – | –
CC(=O)Nc1cc(-c2cc(-c3cc(NC(=O)c4cccc(C(F)(F)F)c4)cnc3C)ccn2)ccn1 [Example 37] | 1000 to 10000 | ≤ 100 | 1000 to 10000 | – | – | –
Cc1ccc(NC(=O)c2ccnc(C(F)(F)F)c2)cc1-c1ccnc(-c2ccnc(NC=O)c2)c1 [Example 46] | 1000 to 10000 | ≤ 100 | 1000 to 10000 | – | – | –
CNC(=O)c1cc(-c2cncc(-c3cc(NC(=O)c4ccnc(C(F)(F)F)c4)ccc3C)n2)ccn1 [Example 47] | 1000 to 10000 | ≤ 100 | 1000 to 10000 | – | – | –
Cc1cc(-c2cc(-c3cc(NC(=O)c4ccnc(C(C)(C)C#N)c4)ccc3C)ccn2)ccn1 [Example 49] | 1000 to 10000 | 100 to 500 | 1000 to 10000 | – | – | –
CNC(=O)c1cc(-c2cc(-c3cc(NC(=O)c4ccnc(C)c4)ccc3C)ncn2)ccn1 [Example 60] | 1000 to 10000 | 100 to 500 | 1000 to 10000 | – | – | –
COCC(=O)Nc1cc(-c2cc(-c3cc(NC(=O)c4ccnc(C(C)(C)C#N)c4)ccc3C)ccn2)ccn1 [Example 61] | 1000 to 10000 | ≤ 100 | 1000 to 10000 | – | – | –
Cc1ccc(NC(=O)c2ccnc(C(C)(C)C#N)c2)cc1-c1ccnc(-c2ccnc(NC(=O)CC#N)c2)c1 [Example 63] | 500 to 1000 | ≤ 100 | 1000 to 10000 | – | – | –
CC(=O)Nc1cc(-c2cccc(-c3cc(NC(=O)c4ccnc(C(F)(F)F)c4)cnc3C)c2)ccn1 [Example 64] | 1000 to 10000 | ≤ 100 | 1000 to 10000 | – | – | –
CC(=O)Nc1cc(-c2cc(-c3cc(NC(=O)c4ccnc(C(F)(F)F)c4)ccc3F)cc(C)n2)ccn1 [Example 65] | 1000 to 10000 | ≤ 100 | 1000 to 10000 | – | – | –
CC(=O)Nc1cc(-c2cc(-c3cc(NC(=O)c4ccnc(C(C)(C)C#N)c4)c(F)cc3C)ccn2)ccn1 [Example 75] | 1000 to 10000 | ≤ 100 | 1000 to 10000 | – | – | –
CC(=O)Nc1cc(-c2cc(-c3cc(NC(=O)c4ccnc(C(F)(F)F)c4)ccc3C)nc(C)n2)ccn1 [Example 83] | 1000 to 10000 | ≤ 100 | 1000 to 10000 | – | – | –
CC(=O)Nc1cc(-c2cc(-c3cc(NC(=O)c4ccnc(C(F)(F)F)c4)ccc3C)ncn2)ccn1 [Example 84] | 1000 to 10000 | ≤ 100 | 1000 to 10000 | – | – | –
COCC(=O)Nc1cc(-c2nccc(-c3cc(NC(=O)c4ccnc(C(C)(C)C#N)c4)ccc3C)n2)ccn1 [Example 88] | 1000 to 10000 | ≤ 100 | 1000 to 10000 | – | – | –
CC(=O)Nc1cc(-c2ccnc(-c3cc(NC(=O)c4ccnc(C(F)(F)F)c4)ccc3C)n2)ccn1 [Example 92] | 100 to 500 | ≤ 100 | 1000 to 10000 | – | – | –
COC(=O)Nc1cc(-c2cnnc(-c3cc(NC(=O)c4ccnc(C(C)(C)F)c4)ccc3C)c2)ccn1 [Example 375] | – | – | – | 100 to 500 | 1000 to 10000 | ≤ 100
Cc1ccc(NC(=O)c2ccnc(C(C)(C)F)c2)cc1-c1cncc(-c2ccnc(C(N)=O)c2)c1 [Example 380] | – | – | – | 100 to 500 | 1000 to 10000 | ≤ 100
CNC(=O)c1cc(-c2cncc(-c3cc(NC(=O)c4cnn(CC(F)(F)F)c4)ccc3C)c2)ncn1 [Example 382] | – | – | – | 1000 to 10000 | 1000 to 10000 | 100 to 500
CNC(=O)c1cc(-c2cncc(-c3cc(NC(=O)Cn4cc(C(C)C)nn4)ccc3C)c2)ncn1 [Example 383] | – | – | – | 1000 to 10000 | 1000 to 10000 | 100 to 500

Further lines, results first:

IC50 [1, 3] [nM] | IC50 [2, 4] [nM] | IC50 (Miapaca-2 cells) [nM] | IC50 (H2405 cells) [nM] | IC50 [1, 5] [nM] | IC50 [2, 6] [nM] | SMILES
1000 to 10000 | ≤ 100 | 100 to 500 | – | – | – | CC(=O)Nc1cc(-c2cc(-c3cc(NC(=O)c4ccnc(C(F)(F)F)c4)ccc3C)cc(OCCO)n2)ccn1 [Example 1, N-(3-(2′-acetamido-6-(2-hydroxyethoxy)-[2,4′-bipyridin]-4-yl)-4-methylphenyl)-2-(trifluoromethyl)isonicotinamide]
500 to 1000 | ≤ 100 | 1000 to 10000 | – | – | – | CC(=O)Nc1cc(-c2cc(-c3cc(NC(=O)c4ccnc(C(F)(F)F)c4)c(F)cc3C)ccn2)ccn1 [Example 2]
1000 to 10000 | ≤ 100 | 1000 to 10000 | – | – | – | CC(=O)Nc1cc(-c2cc(-c3cc(NC(=O)c4ccnc(C(F)(F)F)c4)cnc3C)ccn2)ccn1 [Example 36]
1000 to 10000 | ≤ 100 | 1000 to 10000 | – | – | – | Cc1ccc(NC(=O)c2ccnc(C(F)(F)F)c2)cc1-c1ccnc(-c2ccnc(NC(=O)CC#N)c2)c1 [Example 39, N-(3-(2′-(2-cyanoacetamido)-[2,4′-bipyridin]-4-yl)-4-methylphenyl)-2-(trifluoromethyl)isonicotinamide]
1000 to 10000 | ≤ 100 | 1000 to 10000 | – | – | – | CNC(=O)c1cc(-c2cc(-c3cc(NC(=O)c4ccnc(C)c4)ccc3C)ccn2)ccn1 [Example 40]
1000 to 10000 | ≤ 100 | 1000 to 10000 | – | – | – | Cc1ccc(NC(=O)c2ccnc(C(C)(C)C#N)c2)cc1-c1cncc(-c2ccnc3c2CC(=O)N3)n1 [Example 43]
1000 to 10000 | ≤ 100 | 1000 to 10000 | – | – | – | COCC(=O)Nc1cc(-c2cccc(-c3cc(NC(=O)c4ccnc(C(F)(F)F)c4)ccc3C)c2)ccn1 [Example 57]
1000 to 10000 | ≤ 100 | 1000 to 10000 | – | – | – | CC(=O)Nc1cc(-c2cc(-c3cc(NC(=O)c4ccnc(C)c4)ccc3C)ncn2)ccn1 [Example 59]
100 to 500 | ≤ 100 | 1000 to 10000 | – | – | – | Cc1ccc(NC(=O)c2ccnc(C(F)(F)F)c2)cc1-c1cccc(-c2ccnc(NC(=O)CC#N)c2)c1 [Example 62]
500 to 1000 | ≤ 100 | 1000 to 10000 | – | – | – | Cc1ncc(NC(=O)c2ccnc(C(F)(F)F)c2)cc1-c1cccc(-c2ccnc(NC(=O)C3CC3)c2)c1 [Example 70]
1000 to 10000 | ≤ 100 | 1000 to 10000 | – | – | – | Cc1cc(-c2cc(NC(=O)c3ccnc(C(F)(F)F)c3)ccc2F)cc(-c2ccnc(NC(=O)C3CC3)c2)n1 [Example 72]
1000 to 10000 | 100 to 500 | 1000 to 10000 | – | – | – | CNC(=O)c1cc(-c2cccc(-c3cc(NC(=O)c4ccnc(C(F)(F)F)c4)cnc3C)c2)ccn1 [Example 73]
1000 to 10000 | ≤ 100 | 1000 to 10000 | – | – | – | Cc1cc(F)c(NC(=O)c2ccnc(C(C)(C)C#N)c2)cc1-c1ccnc(-c2ccnc(NC(=O)C3CC3)c2)c1 [Example 76]
1000 to 10000 | 100 to 500 | 1000 to 10000 | – | – | – | CNC(=O)c1cc(-c2nccc(-c3cc(NC(=O)c4ccnc(C(C)(C)C#N)c4)ccc3C)n2)ccn1 [Example 78]
1000 to 10000 | ≤ 100 | 1000 to 10000 | – | – | – | CC(=O)Nc1cc(-c2cccc(-c3cc(NC(=O)c4ccnc(C(C)(C)C#N)c4)ccc3C)c2)ncn1 [Example 79]
1000 to 10000 | 100 to 500 | – | 1000 to 10000 | – | – | CNC(=O)c1cc(-c2cncc(-c3cc(C(=O)Nc4cnn(C(C)C)c4)ccc3C)n2)ccn1 [Example 81]
1000 to 10000 | ≤ 100 | 1000 to 10000 | – | – | – | CC(=O)Nc1cc(-c2cncc(-c3cc(C(=O)Nc4cnn(C(C)C)c4)ccc3C)n2)ccn1 [Example 87]
1000 to 10000 | 100 to 500 | 1000 to 10000 | – | – | – | CC(=O)Nc1cc(-c2cc(-c3cc(NC(=O)c4ccnc(C(C)(C)C#N)c4)ccc3C)nc(C)n2)ccn1 [Example 89]
1000 to 10000 | 100 to 500 | 1000 to 10000 | – | – | – | Cc1ccc(NC(=O)c2ccnc(C(F)(F)F)c2)cc1-c1cncc(-c2ccnc(N)c2)n1 [Example 90]
– | – | – | 1000 to 10000 | 1000 to 10000 | ≤ 100 | Cc1ccc(NC(=O)c2cn(C(C)C)nc2C)cc1-c1cc(-c2ccnc(NC(=O)C3CC3)c2)cnn1 [Example 373]
– | – | – | 1000 to 10000 | 1000 to 10000 | 1000 to 10000 | CNC(=O)c1cc(-c2cnnc(-c3cc(NC(=O)CCC4(F)CC4)cnc3C)c2)ccn1 [Example 374]
– | – | – | 100 to 500 | 1000 to 10000 | 100 to 500 | CNC(=O)c1cc(-c2ccnc(-c3cc(NC(=O)c4ccnc(C(C)(C)C#N)c4)ccc3C)c2)ccn1 [Example 376]
– | – | – | 100 to 500 | 1000 to 10000 | ≤ 100 | Cc1ccc(NC(=O)c2cc(C3CC3)n(C)n2)cc1-c1cc(-c2ccnc(NC(=O)C3CC3)c2)cnn1 [Example 377]
– | – | – | 100 to 500 | 1000 to 10000 | 100 to 500 | CNC(=O)c1cc(-c2ccnc(-c3cc(NC(=O)c4ccnc(C(C)(C)F)c4)ccc3C)c2)ccn1 [Example 378]
– | – | – | 1000 to 10000 | 1000 to 10000 | 100 to 500 | Cc1ccc(NC(=O)c2cnn(CC(F)(F)F)c2)cc1-c1cncc(-c2ccnc(C(N)=O)c2)c1 [Example 381]
